Data as given in ChEMBL document CHEMBL5375962 (J Med Chem, 2023).
≈ marks a conversion by molar mass, not a printed value. Calls of active or inactive are those of the source. The rule behind the calls is not given here.

Legend:
[1] = Cmax in dog at 1 mg/kg, iv; format: ADME, organism-based, Canis lupus familiaris; design: dose 1 mg/kg, route iv; settings: in vivo
[2] = Clearance in dog hepatocytes measured per 10^6 cells; format: ADME, cell-based, Canis lupus familiaris, Hepatocyte; settings: read-out: CLH
[3] = Cmax in rat at 3 mg/kg, po measured after 12 hrs; format: ADME, organism-based; design: dose 3 mg/kg, time 12 hrs, route po; settings: in vivo
[4] = Clearance in human hepatocytes measured per 10^6 cells; format: ADME, cell-based, Hepatocyte; settings: read-out: CLH
[5] = Thermodynamic solubility of the compound […] at pH 7.4; format: physicochemical; settings: read-out: Therm_solubility
[6] = Half life in dog at 1 mg/kg, iv; format: ADME, organism-based, Canis lupus familiaris; settings: in vivo
[7] = Half life in rat at 1 mg/kg, iv measured after 12 hrs; format: ADME, organism-based; settings: in vivo
Ketohexokinase = biological target: T1, Ketohexokinase (Homo sapiens, UniProt P50053); assay: Inhibition of KHK in human HepG2 cells incubated for 3 hrs by Rapidfire MS analysis; format: cell-based
T1 sequence (P50053 whole entry): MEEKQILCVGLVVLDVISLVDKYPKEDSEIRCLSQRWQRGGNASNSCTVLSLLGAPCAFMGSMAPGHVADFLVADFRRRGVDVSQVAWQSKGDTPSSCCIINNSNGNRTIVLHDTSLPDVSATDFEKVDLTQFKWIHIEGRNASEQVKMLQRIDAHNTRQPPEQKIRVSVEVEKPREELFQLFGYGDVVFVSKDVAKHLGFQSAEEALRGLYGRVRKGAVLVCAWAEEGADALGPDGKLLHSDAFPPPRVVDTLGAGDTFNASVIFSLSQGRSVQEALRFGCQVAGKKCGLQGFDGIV

[8] = Inhibition of mouse KHK-C
[9] = AUC in dog at 1 mg/kg, iv; format: ADME, organism-based, Canis lupus familiaris; design: dose 1 mg/kg, route iv; settings: in vivo
[10] = Clearance in dog at 1 mg/kg, iv; format: ADME, organism-based, Canis lupus familiaris; settings: in vivo
[11] = Metabolic stability in mouse liver microsomes assessed as compound degradation measured after 30 mins; format: ADME, Microsome; settings: read-out: Drug degradation
[12] = Volume of distribution in rat at 1 mg/kg, iv measured after 12 hrs; format: ADME, organism-based; settings: in vivo
[13] = Clearance in rat hepatocytes measured per 10^6 cells; format: ADME, cell-based, Hepatocyte; settings: read-out: CLH
[14] = AUC in rat at 3 mg/kg, po measured after 12 hrs; format: ADME, organism-based; design: dose 3 mg/kg, time 12 hrs, route po; settings: in vivo
[15] = Metabolic stability in rat liver microsomes assessed as compound degradation measured after 30 mins; format: ADME, Microsome; settings: read-out: Drug degradation
[16] = Oral bioavailability in rat at 3 mg/kg measured after 12 hrs; format: ADME, organism-based; settings: in vivo
Hepatocyte = assay: Cytotoxicity against rat Primary hepatocyte; format: toxicity, cell-based; settings: hepatocytes
[17] = Metabolic stability in dog liver microsomes assessed as compound degradation measured after 30 mins; format: ADME, Canis lupus familiaris, Microsome; settings: read-out: Drug degradation
[18] = Inhibition of mouse KHK-A
[19] = Tmax in rat at 3 mg/kg, po measured after 12 hrs; format: ADME, organism-based; settings: in vivo
[20] = AUC in rat at 1 mg/kg, iv measured after 12 hrs; format: ADME, organism-based; design: time 12 hrs, dose 1 mg/kg, route iv; settings: in vivo
[21] = Clearance in rat at 1 mg/kg, iv measured after 12 hrs; format: ADME, organism-based; settings: in vivo
[22] = Volume of distribution in dog at 1 mg/kg, iv; format: ADME, organism-based, Canis lupus familiaris; settings: in vivo
[23] = Metabolic stability in human liver microsomes assessed as compound degradation measured after 30 mins; format: ADME, Microsome; settings: read-out: Drug degradation
[24] = Cmax in rat at 1 mg/kg, iv measured after 12 hrs; format: ADME, organism-based; design: dose 1 mg/kg, time 12 hrs, route iv; settings: in vivo
[25] = Permeability in MDCK cells assessed as drug transport measured over 1 hr in presence of P-gp; format: ADME, cell-based, Canis lupus familiaris; settings: dog
[26] = Half life in rat at 3 mg/kg, po measured after 12 hrs; format: ADME, organism-based; settings: in vivo
[27] = Cmax in dog at 3 mg/kg, po; format: ADME, organism-based, Canis lupus familiaris; design: dose 3 mg/kg, route po; settings: in vivo
[28] = Tmax in dog at 3 mg/kg, po; format: ADME, organism-based, Canis lupus familiaris; settings: in vivo
[29] = AUC in dog at 3 mg/kg, po; format: ADME, organism-based, Canis lupus familiaris; design: dose 3 mg/kg, route po; settings: in vivo
[30] = Oral bioavailability in dog at 3 mg/kg; format: ADME, organism-based, Canis lupus familiaris; settings: in vivo
[31] = Half life in dog at 3 mg/kg, po; format: ADME, organism-based, Canis lupus familiaris; settings: in vivo
Mus musculus = assay: Reduction in fructose level in 5 hrs fasted C57B6 mouse assessed as maximum effect at 100 mg/kg administered via oral gavage measured upto 180 mins by oral fructose challenge assay; format: functional, organism-based

| SMILES | Cmax [1] [µM] | hepatocyte CLint [2] [µL/min/1e6 cells] | Cmax [3] [µM] | hepatocyte CLint [4] [µL/min/1e6 cells] | solubility thermodynamic [5] [mg/mL] | half-life [6] [h] | half-life [7] [h] | IC50 [8] [µM] | AUC [9] [nM·h] | clearance [10] [L/h/kg] | metabolised at 0.5 h [11] [%] | Vd [12] [L/kg] | hepatocyte CLint [13] [µL/min/1e6 cells] | AUC at 12 h [14] [nM·h] | metabolised at 0.5 h [15] [%] | bioavailability [16] [%] | LC20 (Hepatocyte) [µM] | metabolised at 0.5 h [17] [%] | IC50 [18] [µM] | Tmax [19] [h] | also measured |
| --- | --- | --- | --- | --- | --- | --- | --- | --- | --- | --- | --- | --- | --- | --- | --- | --- | --- | --- | --- | --- | --- |
| C[C@H]1CCN1c1nc(-c2cnn(CC(=O)NCCO)c2)cc(C(F)(F)F)c1C#N | 2.34 | 3.2 | 0.827 | 2.8 | 0.039 (≈ 95.5 µM) | 5.2 | 2.2 | 0.028 | 9040 | 0.3 | 19 | 2.9 | 12 | 5090 | 21 | 62 | > 50 | 7 | 0.012 | 1.2 | IC50 (Ketohexokinase): 0.084 µM; AUC at 12 h [20]: 2620 nM·h; clearance [21]: 0.96 L/h/kg; Vd [22]: 1.4 L/kg; metabolised at 0.5 h [23]: 4%; Cmax [24]: 1.91 µM; Drug transport [25]: 15%; half-life [26]: 3 h |
| OC[C@H]1CCN1c1nc(-c2cnn(C3CCNCC3)c2)cc(C(F)(F)F)n1 | 2.94 | 3.4 | 0.424 | 1.8 | 0.75 (≈ 1960 µM) | 5 | 4.3 | 0.177 | 1970 | 1.38 | 13 | 17 | < 1.8 | 1950 | 0 | 95 | > 50 | 7 | 0.056 | 1.7 | Cmax [27]: 0.609 µM; Tmax [28]: 2.3 h; AUC [29]: 10300 nM·h; AUC at 12 h [20]: 690 nM·h; clearance [21]: 3.36 L/h/kg; bioavailability [30]: 100%; Vd [22]: 8.4 L/kg; metabolised at 0.5 h [23]: 3%; Cmax [24]: 0.31 µM; Drug transport [25]: 3.2%; half-life [26]: 5 h; half-life [31]: 10 h |
| C[C@H]1CCN1c1nc(N2C[C@@H]3[C@@H](CC(=O)O)[C@@H]3C2)cc(C(F)(F)F)n1 [PF-06835919] |  |  |  |  |  |  |  | 0.02 |  |  |  |  |  |  |  |  |  |  | 0.03 |  | Activity (Mus musculus): Active |
